This note sets out measurements from ChEMBL document CHEMBL3244083, “Fluorinated Pyrimidine nucleosides. 1. Synthesis of a nitrogen analogue of the antitumor agent 2,2'-anhydro-1-beta-D-arabinofuranosyl-5-fluorocytosine hydrochloride” (J Med Chem, 1977).

Calls of active or inactive are those of the source. The calls are words filed in the database; no cut-off is given here.

Data set [1] has as its system CCRF S-180. As to the kind of experiment: Antitumor activity against mouse S180 cells allografted in mouse assessed as tumor growth inhibition at 50 mg/kg, ip qd for 8 days. On the set-up: dose 50 mg/kg. It counts as functional, organism-based.
Data set [2] in a line: Stability of the compound at pH 7.4. It counts as physicochemical. Particulars: buffer.
The test system of data set [3] is CCRF S-180. Kind of data set: Antitumor activity against mouse S180 cells allografted in mouse assessed as tumor growth inhibition at 1 to 5 mg/kg, ip qd for 8 days. It counts as functional, organism-based.
The test system of data set [4] is CCRF S-180. Kind of data set: Antitumor activity against mouse S180 cells allografted in mouse assessed as tumor growth inhibition at 100 mg/kg, ip qd for 8 days. Further details: dose 100 mg/kg. It counts as functional, organism-based.
Data set [5] deals with CCRF S-180. Kind of data set: Antitumor activity against mouse S180 cells allografted in mouse assessed as tumor growth inhibition at 5 mg/kg, ip qd for 8 days. It counts as functional, organism-based. On the set-up: dose 5 mg/kg.

For the compound `O=c1nc2n(cc1F)[C@@H]1O[C@H](CO)[C@@H](O)[C@@H]1N2`, the TGI entry in the data set on CCRF S-180 [1] was “inactive”. The Stability result in data set [2] was “Stable”.

On to `Nc1nc(=O)n([C@@H]2O[C@H](CO)[C@@H](O)[C@H]2O)cc1F`, for which the TGI entry in the data set on CCRF S-180 [3] is “Active”.

As to `Nc1nc(N)[n+]([C@@H]2O[C@H](CO)[C@@H](O)[C@H]2O)cc1F`, the TGI entry in the data set on CCRF S-180 [1] was “inactive”.

Take `O=c1[nH]c(=O)n([C@@H]2O[C@H](CI)[C@@H](O)[C@H]2O)cc1F`: in the data set on CCRF S-180 [1], the TGI entry is “inactive”.

Take `Nc1nc(=O)c(F)cn1[C@@H]1O[C@H](CO)[C@@H](O)[C@H]1O`: the TGI result in the data set on CCRF S-180 [1] is “inactive”.

Regarding `Nc1nc2[n+](cc1F)[C@@H]1O[C@H](CO)[C@@H](O)[C@@H]1N2.[Cl-]`, in the data set with CCRF S-180 [4], the TGI result is “inactive”. Further, the Stability entry in data set [2] is reported as “Stable”.

Regarding `O=c1[nH]c(=O)n([C@@H]2O[C@H](CO)[C@@H](O)[C@H]2O)cc1F`, the TGI entry with CCRF S-180 [5] is “Active”.
